This series concerns gestating cows. As to the kind of experiment: Clinical safety study (abortion, fetal toxicity) in gestating ruminants (Example 3). The format is in vivo. The note with it: two injections at interval of 48 hours, 25 mcg/kg. Here is the method: This study aims to show the absence of risks such as abortions and fetus toxicity during the use of cabergoline in gestating ruminants even in the case of an overdose of cabergoline based veterinary compositions according to the regimen prescribed in the present invention. Groups of cows at different gestating stages receive the treatment at different doses: • 3 months of gestation (6 animals), dose of 15 mcg/kg—2 injections at an interval of 48 hours • 7 to 8 months of gestation: (5 animals), dose of 15 mcg/kg—2 injections at an interval of 48 hours • 6.5 to 7.5 months of gestation: (11 animals), dose of 25 mcg/kg—2 injections an interval of 48 hours
The formulation described in the Example 1, containing 500 mcg/ml of cabergoline in injectable solution is used in this study.
Regular clinical exams were conducted during a period lasting from 7 days before the treatment to 15 days after the treatment:
Daily general inspection and abortions,
Clinical exam of the genital tract including transrectal palpation and an ultrasound, in order to evaluate the suffering and fetal viability.
Blood samplings are conducted one day before the treatment and 15 days after the treatment to follow the plasmatic concentrations of different hormones and proteins indicating the health of the placenta and fetus, such as progesterone, estrone sulfate and the PAG (Pregnancy Associated Glycoprotein). […]

We go through 1 compound from patent publication US9744158B2, “Veterinary antiprolactinic composition for ruminants” (CEVA SANTE ANIMALE, priority 2008, dated 2017).

Regarding `C=CCN1C[C@H](C(=O)N(CCCN(C)C)C(=O)NCC)C[C@@H]2c3cccc4[nH]cc(c34)C[C@H]21` [cabergoline, N-[3-(Dimethylamino)propyl]-N-[(ethylamino)carbonyl]-6-(2-propenyl)-8 g-ergoline-8-carboxamide], the abortions result is listed as “do not provoke any abortions”; the “harmful effect on the gestation, viability and health of the new born calves” value was “neither do they have any harmful effect”.
